The source of these data is patent US6689789B2, “Compounds useful for inhibition of farnesyl protein transferase” (Schering Corporation, priority 1997, dated 2004).

One may read the IC50 as the concentration that gives 50% inhibition. Low values mean greater potency, high ones weaker potency.

The assay deals with farnesyl protein transferase (Homo sapiens, UniProt P49356). The experiment in a line: FPT IC50, inhibition of farnesyl protein transferase, in vitro enzyme assay. Type of assay: biochemical. The following applies: procedure of WO 95/10516. The procedure: FPT IC50 (inhibition of farnesyl protein transferase, in vitro enzyme assay) and COS Cell IC50 (Cell-Based Assay) were determined following the assay procedures described in WO 95/10516, published Apr. 20, 1995. GGPT IC50 (inhibition of geranylgeranyl protein transferase, in vitro enzyme assay), Cell Mat Assay, and anti-tumor activity (in vivo anti-tumor studies) could be determined by the assay procedures described in WO 95/10516. The disclosure of WO 95/10516 is incorporated herein by reference thereto.
As to `O=C(Cc1cc[n+]([O-])cc1)N1CCC(C2(O)c3ncc(Br)cc3CCc3cc(Cl)cc(Br)c32)CC1` (centres unmarked) [Example #1 Step C, 4-(3,10-dibromo-8-chloro-6,11-dihydro-11-hydroxy-5H-benzo[5,6]cyclohepta[1,2-b]pyridin-11-yl)-1-(4-pyridinylacetyl)piperidine N1-oxide], the IC50 was under 2 nM. In the case of `CC(C)(C)OC(=O)N1CCC(CC(=O)N2CCC(C3(O)c4ncc(Br)cc4CCc4cc(Cl)cc(Br)c43)CC2)CC1` (centres unmarked) [Example #2 Step A, 4-(3,10-dibromo-8-chloro-6,11-dihydro-11-hydroxy-5H-benzo[5,6]cyclohepta[1,2-b]pyridin-11-yl)-1-(N-BOC-4-piperdinylacetyl)piperidine] it was 42 nM; in that of `O=C(CC1CCNCC1)N1CCC(C2(O)c3ncc(Br)cc3CCc3cc(Cl)cc(Br)c32)CC1` (centres unmarked) [Example #2 Step B, 4-[2-[4-(3,10-dibromo-8-chloro-6,11-dihydro-11-hydroxy-5H-benzo[5,6]-cyclohepta[1,2-b]pyridin-11-yl)-1-piperdinyl]-2-oxoethyl]-1-piperidine], 12.5 nM; in that of `NC(=O)N1CCC(CC(=O)N2CCC(C3(O)c4ncc(Br)cc4CCc4cc(Cl)cc(Br)c43)CC2)CC1` (centres unmarked) [Example #2 Step C, 4-[2-[4-(3,10-dibromo-8-chloro-6,11-dihydro-11-hydroxy-5H-benzo[5,6]cyclohepta[1,2-b]pyridin-11-yl)-1-piperdinyl]-2-oxoethyl]-1-piperidinecarboxamide], 10.8 nM. The same measure for `NC(=O)CN1CCC(CC(=O)N2CCC(C3(O)c4ncc(Br)cc4CCc4cc(Cl)cc(Br)c43)CC2)CC1` (centres unmarked) [compound 3, 4-[2-[4-(3,10-dibromo-8-chloro-6,11-dihydro-11-hydroxy-5H-benzo[5,6]cyclohepta-[1,2-B]pyridin-11-yl)-1-piperidinyl]-2-oxoethyl]-1-piperidineacetamide]: 8.7 nM.
